In patent US20190125669A1, “SYSTEMS AND METHODS FOR STEROIDAL GELS” (Children's Medical Center Corporation, priority 2016, published 2019):
“Also recorded” adds a separate entry of the source. Where a name gives a salt, the structure may show the parent alone.

How the values were obtained:
[1] = Gelation of steroid drugs and alkaline-earth metal ion; type: physicochemical; set-up: key: L indicates that a liquid was formed; P indicates that a precipitate was formed; H indicates that a hydrogel was formed; L/H indicates that a mixture of a hydrogel and a liquid was formed; P->H indicates that a precipitate formed initially which converted to a hydrogel overnight; conditions: molar ratio steroid drug:metal ion 1:1
Method: The molar ratio of the steroid drug to the alkaline earth metal ion was 1:1 for all of the above samples.
Preparation of hydrogel. […] To form the DexP-hydrogel containing bupivacaine chlorhydrate (BPV), a DexP aqueous solution (100 mM) was added to a mixture of bupivacaine (10 mg/mL; approx. 30.8 mM) and Ca^2+ (100 mM) in a volume ratio of 1:2:1.

[2] = system: sciatic nerve and surrounding tissues; assay: Histology: myotoxicity and inflammation scores; type: in vivo, rats; conditions: for Inflammation (range 0-4) / Myotoxicity (range 0-6): median with 25th and 75th percentiles, bupivacaine 5.0 mg/mL
From the text: 4 or 14 days after injection (n=6 at each time point), the sciatic nerve and surrounding tissues were harvested and processed for histology by hematoxylin-eosin staining (FIG. 6, Table 2). Overall, tissue reaction to all formulations was relatively benign.
Histology. Rats were euthanized by carbon dioxide 4 days or 14 days after injection. The nerve and surrounding tissue were harvested and underwent standard procedures to produce hematoxylin and eosin-stained slides. The samples were scored for inflammation (0-4) and myotoxicity (0-6). The inflammation score was a subjective quantification of severity, where 0 was normal and 4 was severe inflammation. The myotoxicity score was determined by the nuclear internalization and regeneration of myocytes, two representative characteristics of local anesthetics myotoxicity. Nuclear internalization was characterized by myocytes having nuclei located away from its usual location at the periphery of the cell. Regeneration was characterized by the presence of shrunken myocytes with basophilic cytoplasm. The scoring scale was as follows: 0=normal; 1=per fascicular internalization; 2=deep internalization (>5 cell layers); 3=perifascicular regeneration; 4=deep tissue regeneration (>5 cell layers); 5=hemefascicular regeneration; 6=holofascicular regeneration.

sciatic nerve = assay: Sciatic nerve blockade, sensory (modified hotplate test); type: in vivo, rats; conditions: 0.3 mL at the sciatic nerve; bupivacaine 5 mg/mL (15.4 mM); DexP 25 mM where present; mean+/−SD
Method: Sciatic nerve blockade. Under brief isoflurane-oxygen anesthesia, the animals were injected with 0.3 mL of test material using a 23 G needle, which was introduced postero-medial to the greater trochanter until contact with bone.
Sensory nerve block was assessed by a modified hotplate test, as reported previously. The plantar surface of the rat's hind paw was placed on a pre-heated hot plate at 56° C. The time (termed thermal latency) that the animal would leave its hindpaw on the hotplate was recorded. Longer latencies reflected deeper degrees of local anesthesia. Pristine animals have latencies of about 2 s. After 12 s, the hindpaw was removed from the hotplate by the investigator to avoid tissue thermal injury or the development of hyperalgesia. Measurements were repeated 3 times at each timepoint. The duration of block was calculated as the time required for thermal latency to return to a value of 7 s from a higher value; 7 s is the midpoint between a baseline thermal latency of 2 seconds in adult rats, and a maximal latency of 12 s.

C2C12 cells = assay: Cell viability (MTS assay, Transwell); type: cell-based; conditions: 24 h exposure, hydrogels [DexP]=25 mM
Method: The cytotoxicity of DexP-hydrogels ([DexP]:[Ca^2+]=2:1, 1:1, or 2:3), and free DexP were assessed by exposing C2C12 cells to them for 24 h in a Transwell® system where the gels were separated from the cells by a permeable membrane (FIG. 12) and measuring cell viability by MTS (3-(4,5-dimethylthiazol-2-yl)-5-(3-carboxymethoxyphenyl)-2-(4-sulfophenyl)-2H-tetrazolium) assay. […] The concentration of free DexP in the cell culture media incubated with the DexP-hydrogel ([DexP]:[Ca^2+]=2:1) for 24 h was 2.5 mg/mL (calculated from the release profile in FIG. 3), and the reduction of cell viability in that group was similar to that from 2.5 mg/mL of free DexP (p=0.31, p<0.005 compared to untreated cells). 25 mM DexP-hydrogels with the ratio [DexP]:[Ca^2+]=1:1 were used in subsequent experiments.
Cell viability. In vitro cell viability in the presence of DexP hydrogels was investigated in C2C12 cells (American Type Culture Collection, Manassas, Va.). In brief, C2C12 cells were grown and maintained in DMEM with 20% FBS and 1% Penicillin Streptomycin (Invitrogen, Waltham, Mass.) at 37° C. in 5% CO2. Cells were seeded into the lower chamber of 24-well Transwell® plates (Costar 3470, pore size 0.4 micrometers, Corning Incorporated, Corning, N.Y.) at 50,000 cells/mL in DMEM with 2% horse serum and 1% penicillin streptomycin and incubated for 14 days to allow differentiation into myotubes. […]

| Gelation ([1]; Ba^2+ concentration 2.5) | Gelation ([1]; Ba^2+ concentration 6.25) | Gelation ([1]; Ba^2+ concentration 12.5) | Gelation ([1]; Ba^2+ concentration 25) | Gelation ([1]; Ca^2+ concentration 2.5) | Gelation ([1]; Ca^2+ concentration 6.25) | Gelation ([1]; Ca^2+ concentration 12.5) | Gelation ([1]; Ca^2+ concentration 25) | Compound | Inflammation (range 0-4) ([2]; 4 days) | Myotoxicity (range 0-6) ([2]; 4 days) | Inflammation (range 0-4) ([2]; 14 days) | Myotoxicity (range 0-6) ([2]; 14 days) | Tissue reaction (histology, H&E) ([2]; day 4 after injection at the sciatic nerve, listed as free bupivacaine solution, hydrochloride) | Tissue reaction (histology, H&E) ([2]; day 14 after injection at the sciatic nerve) | Duration of sensory blockade (sciatic nerve) | Cell viability / cytotoxicity (C2C12 cells) |
| --- | --- | --- | --- | --- | --- | --- | --- | --- | --- | --- | --- | --- | --- | --- | --- | --- |
| L | L | P−>H | P−>H | L/H | L/H | H | H | C[C@H]1C[C@H]2[C@@H]3CCC4=CC(=O)C=C[C@]4(C)[C@@]3(F)[C@@H](O)C[C@]2(C)[C@@]1(O)C(=O)COP(=O)(O)O [Betamethasone phosphate, betamethasone phosphate disodium] |  |  |  |  |  |  |  |  |
|  |  |  |  |  |  |  |  | CCCCN1CCCCC1C(=O)Nc1c(C)cccc1C (centres unmarked) [Bupivacaine solution, bupivacaine hydrochloride] | 2.0 (1.0-2.5) | 3.0 (3.0-3.75) | 1.0 (0.5-1.0) | 1.0 (0.5-1.0) | inflammatory infiltrate consisting primarily of macrophages with lymphocytes and occasional neutrophils; also recorded: evidence of myotoxicity | diminished compared to reaction at day 4, almost back to normal | 126 ± 38 min |  |
| L | L | P−>H | P−>H | L/H | L/H | H | H | C[C@@H]1C[C@H]2[C@@H]3CCC4=CC(=O)C=C[C@]4(C)[C@@]3(F)[C@@H](O)C[C@]2(C)[C@@]1(O)C(=O)COP(=O)(O)O [Dexamethasone phosphate, dexamethasone phosphate disodium] |  |  |  |  |  |  |  | concentration-dependent reduction of cell viability |
| L | L | P−>H | P−>H | L/H | L/H | H | H | hydrocortisone phosphate disodium |  |  |  |  |  |  |  |  |
